Data reported in ChEMBL document CHEMBL3864169, “Quinazoline Carboxamides as Selective Antagonists of Adenosine 2A Receptor” (ACS Med Chem Lett, 2016).
pKi: −log10 of the molar value.

Target: Adenosine receptor A2a (Homo sapiens, UniProt P29274)
Assay: Displacement of [3H]5-amino-7-[2- phenethyl]-2-(furan-2-yl)-7H-pyrazolo[4,3-e][l,2,4]triazolo[l,5-c]pyrimidine from human adenosine A2A receptor expressed in HEK293 cell membranes measured after 1 hr by TopCount scintillation counting method

Adenosine receptor A2a, sequence (P29274 whole entry): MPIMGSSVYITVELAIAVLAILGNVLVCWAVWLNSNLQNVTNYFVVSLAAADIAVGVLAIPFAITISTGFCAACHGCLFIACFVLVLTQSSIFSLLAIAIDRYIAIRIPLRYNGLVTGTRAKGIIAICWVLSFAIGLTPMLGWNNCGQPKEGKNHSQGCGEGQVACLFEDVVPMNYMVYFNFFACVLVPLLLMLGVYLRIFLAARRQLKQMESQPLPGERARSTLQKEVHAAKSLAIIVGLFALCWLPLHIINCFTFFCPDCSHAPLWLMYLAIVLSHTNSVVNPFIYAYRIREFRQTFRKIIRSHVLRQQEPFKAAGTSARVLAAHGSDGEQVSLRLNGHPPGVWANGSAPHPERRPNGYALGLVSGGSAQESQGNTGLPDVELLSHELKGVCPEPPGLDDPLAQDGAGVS

SMILES: CC(C)OCc1cccc(CNC(=O)c2nc(N)nc3c(F)cccc23)n1
- pKi: 9.00
